Measured values from patent publication US10517889B2, “Modulators of SMAD7 expression” (Ionis Pharmaceuticals, Inc., priority 2017, dated 2019).
Strand notation (5' to 3'): a small letter for the sugar, then the base; units joined by * are phosphorothioate-linked, units joined directly phosphodiester-linked; [ ] holds rarer units or linkages, { } end groups; capitals alone tell only the bases. e = 2'-O-(2-methoxyethyl) (MOE); [5mC] = 5-methylcytosine; d = 2'-deoxy (DNA)

Columns and labels:
human SMAD7 mRNA [1] = test: Dose-dependent inhibition of human SMAD7 mRNA expression in Hep3B cells (Example 3, Study 1 and 2); type: cell-based; details: electroporation; for % inhibition of SMAD7 mRNA expression: approximately 16 hours; for IC50: Study 1 (312.5-20000 nM)
Procedure, shortened: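 Hep3B cells, 20,000 per well, electroporated with antisense oligonucleotide at 0.31, 1.25, 5.00 or 20.00 μM (first series) or 0.74, 2.22, 6.67 or 20.00 μM (second series). After ~16 h, SMAD7 mRNA measured by RT-qPCR (RTS5062), normalised to RIBOGREEN total RNA. Percent inhibition vs untreated cells; IC50 derived.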

human SMAD7 mRNA [2] = test: Antisense inhibition of human SMAD7 mRNA expression in Hep3B cells by 5-10-5 MOE gapmers, single concentration, electroporation, RT-PCR (Example 1, Study 1 and 2); type: cell-based; details: for % Inhibition: Study 2, electroporation with 15,000 nM antisense oligonucleotide; for % Inhibition of SMAD7 mRNA: electroporation with 15,000 nM antisense oligonucleotide (Study 2)
Procedure, shortened: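 Hep3B cells (20,000/well) electroporated with 5-10-5 MOE gapmer at 5,000 nM or 15,000 nM for approximately 24 h. SMAD7 mRNA quantified by real-time PCR with primer probe set RTS5062 and normalized to RIBOGREEN total RNA. Values are percent inhibition relative to untreated controls.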

[3] = 312.5 nM, Study 1, relative to untreated control cells
[4] = electroporation, 15,000 nM antisense oligonucleotide (Study 2), 5-10-5 MOE gapmers targeting SEQ ID NO: 1 and 2
[5] = 5-10-5 MOE gapmers targeting SEQ ID NO: 1 and 2

For “771770 (antisense e[5mC]*eT*eG*eT*eT*dG*dG*d[5mC]*dA*dG*dT*dG*d[5mC]*dT*d[5mC]*e[5mC]*e[5mC]*eA*e[5mC]*e[5mC]) [compound 771770]”, the “% inhibition of SMAD7 mRNA expression” value (human SMAD7 mRNA [1]; [3]) was 0%, the “% inhibition of SMAD7 mRNA expression” value (human SMAD7 mRNA [1]; 1250.0 nM, Study 1) was 11% and the “% inhibition of SMAD7 mRNA expression” value (human SMAD7 mRNA [1]; 5000.0 nM, Study 1) was 27%. For the same substance, the “% inhibition of SMAD7 mRNA expression” value (human SMAD7 mRNA [1]; 20000.0 nM, Study 1) was 51%, the IC50 (human SMAD7 mRNA [1]) was over 20 µM and the “% inhibition of SMAD7 mRNA expression” value (human SMAD7 mRNA [2]; [4]) was 61%.

“771902 (antisense eG*eG*eG*eT*eT*d[5mC]*dT*d[5mC]*d[5mC]*dA*dG*d[5mC]*d[5mC]*dG*d[5mC]*eT*e[5mC]*eA*eG*eA) [compound 771902]” was tested, and the “% inhibition of SMAD7 mRNA expression” value (human SMAD7 mRNA [1]; [3]) was 0%, the “% inhibition of SMAD7 mRNA expression” value (human SMAD7 mRNA [1]; 1250.0 nM, Study 1) was 17% and the “% inhibition of SMAD7 mRNA expression” value (human SMAD7 mRNA [1]; 5000.0 nM, Study 1) was 29%. The “% inhibition of SMAD7 mRNA expression” value (human SMAD7 mRNA [1]; 20000.0 nM, Study 1) was 59%, the IC50 (human SMAD7 mRNA [1]) was 13 µM and the “% Inhibition” value (human SMAD7 mRNA [2]; [5]) was 77%.

With “771869 (antisense eA*eG*e[5mC]*e[5mC]*eA*dA*dG*dT*dG*dT*d[5mC]*d[5mC]*dA*dT*d[5mC]*eA*eA*eG*e[5mC]*eA) [compound 771869]” the “% inhibition of SMAD7 mRNA expression” value (human SMAD7 mRNA [1]; [3]) was 10%, the “% inhibition of SMAD7 mRNA expression” value (human SMAD7 mRNA [1]; 1250.0 nM, Study 1) was 0% and the “% inhibition of SMAD7 mRNA expression” value (human SMAD7 mRNA [1]; 5000.0 nM, Study 1) was 24%. For the same substance, the “% inhibition of SMAD7 mRNA expression” value (human SMAD7 mRNA [1]; 20000.0 nM, Study 1) was 43%, the IC50 (human SMAD7 mRNA [1]) was over 20 µM and the “% inhibition of SMAD7 mRNA expression” value (human SMAD7 mRNA [2]; electroporation, 15,000 nM, approximately 24 hours, relative to untreated control cells, gapmers targeting SEQ ID NO: 1 and 2) was 62%.

“771776 (antisense e[5mC]*eT*e[5mC]*eA*eG*d[5mC]*dA*dA*dG*d[5mC]*dT*d[5mC]*dA*dG*dT*eT*e[5mC]*e[5mC]*eT*eG) [compound 771776]” was tested, and the “% inhibition of SMAD7 mRNA expression” value (human SMAD7 mRNA [1]; [3]) was 10%, the “% inhibition of SMAD7 mRNA expression” value (human SMAD7 mRNA [1]; 1250.0 nM, Study 1) was 13% and the “% inhibition of SMAD7 mRNA expression” value (human SMAD7 mRNA [1]; 5000.0 nM, Study 1) was 36%. The “% inhibition of SMAD7 mRNA expression” value (human SMAD7 mRNA [1]; 20000.0 nM, Study 1) was 67%, the IC50 (human SMAD7 mRNA [1]) was 9 µM and the “% Inhibition of SMAD7 mRNA” value (human SMAD7 mRNA [2]; [5]) was 54%. For the same substance, the “% inhibition of SMAD7 mRNA expression” value (human SMAD7 mRNA [2]; [4]) was 38%.

For “771386 (antisense e[5mC]*eT*eG*eG*eA*d[5mC]*dA*dG*dT*d[5mC]*dT*dG*d[5mC]*dT*dG*eT*eG*eG*eA*eT) [compound 771386]”, the “% inhibition of SMAD7 mRNA expression” value (human SMAD7 mRNA [1]; [3]) was 9%, the “% inhibition of SMAD7 mRNA expression” value (human SMAD7 mRNA [1]; 1250.0 nM, Study 1) was 3% and the “% inhibition of SMAD7 mRNA expression” value (human SMAD7 mRNA [1]; 5000.0 nM, Study 1) was 25%. The “% inhibition of SMAD7 mRNA expression” value (human SMAD7 mRNA [1]; 20000.0 nM, Study 1) was 60%, the IC50 (human SMAD7 mRNA [1]) was 19 µM and the “% Inhibition” value (human SMAD7 mRNA [2]; [5]) was 57%.

For “771461 (antisense eG*eT*eA*eG*eA*dG*d[5mC]*d[5mC]*dT*d[5mC]*d[5mC]*d[5mC]*d[5mC]*dA*d[5mC]*eT*e[5mC]*eT*e[5mC]*eG) [compound 771461]”, the “% inhibition of SMAD7 mRNA expression” value (human SMAD7 mRNA [1]; [3]) was 0%, the “% inhibition of SMAD7 mRNA expression” value (human SMAD7 mRNA [1]; 1250.0 nM, Study 1) was 2% and the “% inhibition of SMAD7 mRNA expression” value (human SMAD7 mRNA [1]; 5000.0 nM, Study 1) was 11%. For the same substance, the “% inhibition of SMAD7 mRNA expression” value (human SMAD7 mRNA [1]; 20000.0 nM, Study 1) was 39%, the IC50 (human SMAD7 mRNA [1]) was over 20 µM and the “% Inhibition” value (human SMAD7 mRNA [2]; [5]) was 37%.

“771808 (antisense e[5mC]*e[5mC]*e[5mC]*e[5mC]*eA*dA*dA*dG*dT*d[5mC]*d[5mC]*dA*d[5mC]*dG*d[5mC]*eT*e[5mC]*eA*eT*eG) [compound 771808]” was tested, and the “% inhibition of SMAD7 mRNA expression” value (human SMAD7 mRNA [1]; [3]) was 10%, the “% inhibition of SMAD7 mRNA expression” value (human SMAD7 mRNA [1]; 1250.0 nM, Study 1) was 0% and the “% inhibition of SMAD7 mRNA expression” value (human SMAD7 mRNA [1]; 5000.0 nM, Study 1) was 23%. The “% inhibition of SMAD7 mRNA expression” value (human SMAD7 mRNA [1]; 20000.0 nM, Study 1) was 66%, the IC50 (human SMAD7 mRNA [1]) was 16 µM and the “% Inhibition of SMAD7 mRNA” value (human SMAD7 mRNA [2]; [5]) was 54%. The “% inhibition of SMAD7 mRNA expression” value (human SMAD7 mRNA [2]; [4]) was 32%.

“771944 (antisense eG*eG*eT*eA*eA*dT*dT*dT*dT*d[5mC]*d[5mC]*dT*d[5mC]*dA*dA*e[5mC]*eA*eG*eG*e[5mC]) [compound 771944]” was tested, and the “% inhibition of SMAD7 mRNA expression” value (human SMAD7 mRNA [1]; [3]) was 0%, the “% inhibition of SMAD7 mRNA expression” value (human SMAD7 mRNA [1]; 1250.0 nM, Study 1) was 34% and the “% inhibition of SMAD7 mRNA expression” value (human SMAD7 mRNA [1]; 5000.0 nM, Study 1) was 35%. For the same substance, the “% inhibition of SMAD7 mRNA expression” value (human SMAD7 mRNA [1]; 20000.0 nM, Study 1) was 48%, the IC50 (human SMAD7 mRNA [1]) was over 20 µM and the “% Inhibition of SMAD7 mRNA” value (human SMAD7 mRNA [2]; [5]) was 50%. For the same substance, the “% inhibition of SMAD7 mRNA expression” value (human SMAD7 mRNA [2]; [4]) was 8%.

“771825 (antisense e[5mC]*eT*e[5mC]*eT*e[5mC]*dA*dT*dT*dT*d[5mC]*dT*dG*dG*dA*dA*e[5mC]*e[5mC]*e[5mC]*eA*e[5mC]) [compound 771825]” was tested, and the “% inhibition of SMAD7 mRNA expression” value (human SMAD7 mRNA [1]; [3]) was 15%, the “% inhibition of SMAD7 mRNA expression” value (human SMAD7 mRNA [1]; 1250.0 nM, Study 1) was 29% and the “% inhibition of SMAD7 mRNA expression” value (human SMAD7 mRNA [1]; 5000.0 nM, Study 1) was 17%. The “% inhibition of SMAD7 mRNA expression” value (human SMAD7 mRNA [1]; 20000.0 nM, Study 1) was 66%, the IC50 (human SMAD7 mRNA [1]) was 15 µM and the “% inhibition of SMAD7 mRNA expression” value (human SMAD7 mRNA [2]; [4]) was 76%.
